Experimental data: US20140141137A1, “Encapsulated Antimicrobial Material” (Danisco A/S, priority 2012, published 2014)

Tests used:
[1] = system: moulds; assay: Mould spoilage of sliced bread over shelf life; type: cell-based; conditions: 12 ppm on flour weight; normal shelf life period
Experimental: (§1) A bread is made by preparing a dough containing flour, water, yeast, salt and a dough conditioner. Included in the dough mix is either natamycin or encapsulated natamycin or neither. […] All ingredients are mixed together thoroughly for between 3 and 10 minutes.
When the bread is cool, the natamycin content in the bread is assayed. The natamycin content from bread containing encapsulated natamycin is higher than that in the bread containing unencapsulated natamycin, indicating the heat protective benefit of encapsulated natamycin. The bread is then sliced and observed over the normal shelf life period for growth of moulds.

[2] = system: common food spoilage yeasts and moulds; conditions: cited from earlier work
[3] = system: yeast; assay: Leavening of bread dough containing natamycin; type: cell-based; conditions: 12 ppm on flour weight; about 50 minutes, 85% relative humidity, 40° C.
Experimental: as §1
The dough is then given a short resting period after mixing (approx. 5 to 10 minutes) followed by scaling at the required weight. A second rest period is then applied following a second moulding in shape the dough as desired. The dough is then placed into a tin or tray. A leavening period for about 50 minutes at 85% relative humidity at 40° C. then follows.

[4] = Davies et al. 1998; cited from earlier work
[5] = reportedly; or more; cited from earlier work

| Molecule | Mould spoilage / extension of shelf life of sliced bread [1] | Concentrations inhibiting most strains [2] | Leavening of bread dough [3] | pH of optimum stability [4] | Effective levels to preserve foodstuffs [5] |
| --- | --- | --- | --- | --- | --- |
| C[C@@H]1C/C=C/C=C/C=C/C=C/[C@H](O[C@@H]2O[C@H](C)[C@@H](O)[C@H](N)[C@@H]2O)C[C@@H]2O[C@](O)(C[C@@H](O)C[C@H]3O[C@@H]3/C=C/C(=O)O1)C[C@H](O)[C@H]2C(=O)O [natamycin] | Delay of mould spoilage is observed | 1-15 ppm | poor leavening | – | – |
| nisin (ITSISLCTPGCKTGALMGCNMKTATCHCSIHVSK; Lantibiotic nisin-A; UniProt P13068 24-57, looked up) [polypeptide bacteriocin produced by the lactic acid bacteria, Lactococcus lactis subsp. lactis] | – | – | – | 3 | 25-500 IU/g |
